{"source": "paper PMC3653412", "about": "(European journal of pharmacology, 2012)", "target": "complex I (NADH:ubiquinone oxidoreductase) (Rattus norvegicus, UniProt A6K8N6+P03889+Q641Y2)", "assay": "oxygen consumption of isolated mitochondria, Clark electrode", "format": "biochemical", "details": "read-out: % inhibition at 0.5 mM", "data": [{"smiles": "FC(F)OC(Cl)C(F)(F)F", "note": "(stereo not shown) [isoflurane]", "values": [{"measurement": "inhibition at 500 µM", "result": "28 ± 10", "unit": "%"}]}]}
